“And” between values parts separate entries of the source, which are not always exact repeats. Equal entries are not always repeated. Where two headings read alike, the source gives them in different places. Where a SMILES comes first, the peptide text is derived from it. Bridges are numbered along the chain shown (N, C = ends). [ ]: non-standard residue; d: D form. The star is where a group is joined. X1 = NC[C@@H](CC(=O)*)c1cccc(Cl)c1; X2 = CC[C@H](C)CCCCC(=O)*; Dab = NCC[C@H](N)C(=O)O; Dap = NC[C@H](N)C(=O)O
Assays:
A. baumannii = experiment: Bacterial survival at 10xMIC for 4 hours; assay type: cell-based, Acinetobacter baumannii; details: for Survival rate (log10): Acinetobacter baumannii, survival at 10xMIC for 4 hours, single replicates, (fig 9a source data)
Protocol: (§1) We employed image analysis to quantify bacterial survival under fixed antibiotic concentrations (10xMIC for 4 hours) on E. coli, A. baumannii, K. pneumoniae, and P. aeruginosa. […] Survival rate was quantified by calculating the ratio of the viable cells after antibiotic treatment and the total initial viable cell count.
(§2) Fig. 9 Killing kinetics of the studied antibiotics. a Bacterial survival rate in response to toxic antibiotic exposure. […] The bars indicate the survival rate (log10) compared to the untreated initial viable cell count (see “Methods”). Data are presented as mean values of 5 biological replicates ± SEM. The antibiotic group differentiation is denoted by color. […] Survival was estimated by measuring cell viability (colony-forming units/ml) of 2 biologically independent strains following a 4-hour exposure to different concentrations of 16 antibiotics on E. coli ATCC25922 (for further details, see “Methods”). The antibiotic concentration that kills 99.9% of the E. coli population is indicated as a vertical dotted line (see Supplementary Data 5). Error bars represent standard error calculated from the colony counts by Poisson’s model. A Hill function was fitted to the dose-response data from two biological replicates, producing sigmoidal curves (Supplementary Data 5). The Hill coefficient reflects how steeply the survival rate decreases in response to increasing antibiotic concentration ([…]). […] X-axis label colors indicate mode of action groups. For detailed information on antibiotic and bacterial species, see Supplementary Data 1. Source data are provided as a Source Data file.
(§3) In this current study, the killing kinetics of each antibiotic was measured according to a previously established experimental protocol[62] with minor modifications. During this assay, the bacterial cultures were exposed to antibiotics in 96-well assay plates and their viability after 4 hours of exposure was quantified by two methods: i) microplating and colony counting or ii) fluorescent staining of cells and counting of the fluorescent units.
(§4) Specifically, these experiments were performed in the following steps: (1) Preparation of bacterial stocks. Single colonies from each strain were isolated and grown overnight in MHB medium at 37 °C, 160 rpm. In case of the fluorescently tagged E. coli strains, the medium was supplemented with 10 μg/mL chloramphenicol, to maintain the pZS2R plasmid. Overnight cultures were diluted 1:5000 and grown to an optical density at 600 nm (OD600) of 0.25. These cultures were concentrated by centrifugation and small aliquots of 50 μL containing ~2.2 × 10^9 cells were frozen in glycerol (stored at −80 °C). (2) Preparing assay plates with antibiotics. 96-well plates were filled with 235 μL MHB and supplemented with antibiotics using an automated digital dispenser (D300e, Tecan). In the case of SCH79797, we used minimal media. […] For testing the clearance efficacy of each antibiotic at a single lethal dose, the 10x of the MIC for each antibiotic-strain pair were prepared in at least three replicates. (3) Antibiotic exposure. During the dose response assay, frozen cultures of the E. coli strains expressing YFP and mCherry were thawed and mixed at a 1:1 ratio, diluted 1:1000 in 30 mL MHB and incubated for 45 min at 37 °C and 160 rpm. During the single-dose assay, the frozen cultures of experimental strains (E. coli, K. pneumoniae, A. baumannii) were also thawed and diluted 1:1000 in 30 mL MHB and incubated at 37 °C to reach an OD of 0.25 and 160 rpm. Following this incubation phase, these bacterial cultures were then aliquoted into the 96-well deep-well antibiotic plates (15 μL culture; total volume of 250 μL) at an inoculum density of about 10^7 CFU.

E. coli = assay type: cell-based, Escherichia coli
Protocol: as §1, §2, §3, §4

P. aeruginosa = assay type: cell-based, Pseudomonas aeruginosa
Protocol: as §1, §2, §3, §4

[1] = Escherichia coli, survival at 10xMIC for 4 hours, single replicates, (fig 9a source data)

Molecule: CN[C@@H]1[C@@H](O[C@H]2O[C@H](CO)[C@@H](N)[C@H](O)[C@H]2O)OC2C[C@@H](N)[C@@H](O[C@H]3[C@H](O)[C@@H](O)[C@H](N)C[C@@H]3N)OC2[C@@H]1O (stereo partly shown) [Apramycin]
- Survival rate (log10) (A. baumannii; listed as APR): -1.378 log10 and -1.536 log10 and -1.241 log10 and -1.504 log10 and -1.3851 log10

Molecule: Nc1nc(-n2cc(C(=O)O)c(=O)c3cc(F)c(N4CC(O)C4)c(Cl)c32)c(F)cc1F [Delafloxacin]
- Survival rate (log10) (A. baumannii; listed as DEL): -1.416 log10 and -1.661 log10 and -1.352 log10 and -1.5252 log10 and -1.635 log10
- Survival rate (log10) (E. coli; Escherichia coli, survival at 10xMIC for 4 hours, single replicates, (fig 9a source data), listed as DEL): -1.163 log10 and -1.03 log10 and -1.096 log10 and -1.128 log10 and -1.122 log10
- Survival rate (log10) (P. aeruginosa; Pseudomonas aeruginosa, survival at 10xMIC for 4 hours, single replicates, (fig 9a source data), listed as DEL): -0.244 log10 and -0.1736 log10 and -0.08683 log10 and -0.3488 log10 and -0.1122 log10

Molecule: CN(C)[C@@H]1C(O)=C(C(N)=O)C(=O)[C@@]2(O)C(O)=C3C(=O)c4c(O)c(NC(=O)CN5CCCC5)cc(F)c4C[C@H]3C[C@@H]12 [Eravacycline]
- Survival rate (log10) (A. baumannii; listed as ERA): -1.499 log10 and -1.238 log10 and -1.644 log10 and -1.596 log10 and -1.425 log10
- Survival rate (log10) (E. coli; Escherichia coli, survival at 10xMIC for 4 hours, single replicates, (fig 9a source data), listed as ERA): -1.588 log10 and -1.262 log10 and -1.406 log10 and -1.2833 log10 and -1.1562 log10
- Survival rate (log10) (P. aeruginosa; Pseudomonas aeruginosa, survival at 10xMIC for 4 hours, single replicates, (fig 9a source data), listed as ERA): -0.509 log10 and -0.5518 log10 and -0.8039 log10 and -0.6612 log10 and -0.7582 log10

Molecule: CNC(C)C1CCC(N)C(OC2C(N)CC(N)C(OC3OCC(C)(O)C(NC)C3O)C2O)O1 (stereo not shown) [Gentamicin]
- Survival rate (log10) (A. baumannii; listed as GEN): -1.432 log10 and -1.215 log10 and -1.434 log10 and -1.4437 log10 and -1.516 log10
- Survival rate (log10) (E. coli; Escherichia coli, survival at 10xMIC for 4 hours, single replicates, (fig 9a source data), listed as GEN): -0.32 log10 and -0.3695 log10 and -0.2419 log10 and -0.4019 log10 and -0.3632 log10
- Survival rate (log10) (P. aeruginosa; Pseudomonas aeruginosa, survival at 10xMIC for 4 hours, single replicates, (fig 9a source data), listed as GEN): -0.02375 log10 and -0.1205 log10 and -0.1516 log10 and -0.09697 log10 and -0.6642 log10

Molecule: CC[C@H](C)CCCCC(=O)N[C@@H](CCN)C(=O)N[C@H](C(=O)N[C@@H](CCN)C(=O)N[C@H]1CCNC(=O)[C@H]([C@@H](C)O)NC(=O)[C@H](CCN)NC(=O)[C@H](CCN)NC(=O)[C@H](CC(C)C)NC(=O)[C@@H](Cc2ccccc2)NC(=O)[C@H](CCN)NC1=O)[C@@H](C)O [Polymyxin B] (X2-[Dab]T[Dab][Dab][Dab][dF]L[Dab][Dab]T; lactam 4-C (inferred); N-terminus assumed)
- Survival rate (log10) (A. baumannii; listed as PMB): -3.38 log10 and -2.762 log10 and -3.033 log10 and -2.9785 log10 and -2.974 log10
- Survival rate (log10) (E. coli; Escherichia coli, survival at 10xMIC for 4 hours, single replicates, (fig 9a source data), listed as PMB): -4.007 log10 and -4.747 log10 and -3.481 log10
- Survival rate (log10) (P. aeruginosa; Pseudomonas aeruginosa, survival at 10xMIC for 4 hours, single replicates, (fig 9a source data), listed as PMB): -6 log10 and -3.379 log10

Molecule: CC(C)c1ccc(Cn2ccc3c4c(N)nc(NC5CC5)nc4ccc32)cc1 [SCH79797]
- bacterial survival after toxic antibiotic exposure (A. baumannii; 10xMIC for 4 hours): eliminated the entire bacterial population
- Survival rate (log10) (A. baumannii): -6 log10
- bacterial survival after toxic antibiotic exposure (E. coli; 10xMIC for 4 hours): eliminated the entire bacterial population
- Survival rate (log10) (E. coli; [1]): -6 log10

Molecule: CC(C)C[C@@H]1NC(=O)[C@@H](Cc2ccccc2)NC(=O)[C@H](CCN)NC(=O)[C@@H](NC(=O)[C@H](CN)NC(=O)[C@@H](NC(=O)C[C@H](CN)c2cccc(Cl)c2)[C@@H](C)O)CCNC(=O)[C@H]([C@@H](C)O)NC(=O)[C@H](CCN)NC(=O)[C@H](CCN)NC1=O [SPR206] (X1-T[Dap][Dab][Dab][dF]L[Dab][Dab]T; lactam 3-C (inferred); N-terminus assumed)
- Survival rate (log10) (A. baumannii; listed as SPR): -1.951 log10 and -2.839 log10 and -3.084 log10 and -1.511 log10 and -2.915 log10
- Survival rate (log10) (E. coli; Escherichia coli, survival at 10xMIC for 4 hours, single replicates, (fig 9a source data), listed as SPR): -4.747 log10 and -3.687 log10 and -3.935 log10 and -4.007 log10 and -3.902 log10
- Survival rate (log10) (P. aeruginosa; Pseudomonas aeruginosa, survival at 10xMIC for 4 hours, single replicates, (fig 9a source data), listed as SPR): -6 log10 and -2.301 log10 and -2.534 log10 and -2.682 log10

Molecule: C[C@@H](O)[C@H]1C(=O)N2C(C(=O)O)=C(S[C@H]3CC[S@@+]([O-])C3)S[C@H]12 [Sulopenem]
- Survival rate (log10) (A. baumannii; listed as SUO): -2.317 log10 and -2.432 log10 and -2.658 log10 and -2.635 log10
- Survival rate (log10) (E. coli; Escherichia coli, survival at 10xMIC for 4 hours, single replicates, (fig 9a source data), listed as SUO): -1.918 log10 and -1.5648 log10 and -1.786 log10 and -1.733 log10 and -1.844 log10

Molecule: POL7306
- Survival rate (log10) (A. baumannii; listed as POL): -3.645 log10 and -4.987 log10 and -2.756 log10 and -3.625 log10 and -3.539 log10
- Survival rate (log10) (E. coli): -4.747 log10
- Survival rate (log10) (E. coli; Escherichia coli, survival at 10xMIC for 4 hours, single replicates, (fig 9a source data), listed as POL): -4.446 log10 and -4.3509 log10
- Survival rate (log10) (P. aeruginosa): -6 log10
- Survival rate (log10) (P. aeruginosa; Pseudomonas aeruginosa, survival at 10xMIC for 4 hours, single replicates, (fig 9a source data), listed as POL): -2.602 log10 and -2.902 log10 and -2.057 log10

Molecule: Tridecaptin M152-P3
- Survival rate (log10) (A. baumannii; listed as TRD): -2.876 log10 and -2.59 log10 and -2.704 log10 and -2.72 log10 and -2.696 log10
- Survival rate (log10) (E. coli): -4.747 log10
- Survival rate (log10) (E. coli; [1]): -3.386 log10

Molecule: colistin
- Survival rate (log10) (A. baumannii; listed as COL): -3.481 log10 and -3.59 log10 and -3.495 log10 and -4.987 log10 and -3.369 log10
- Survival rate (log10) (E. coli; Escherichia coli, survival at 10xMIC for 4 hours, single replicates, (fig 9a source data), listed as COL): -4.747 log10 and -3.794 log10
- bacterial survival after toxic antibiotic exposure (P. aeruginosa; 10xMIC for 4 hours): eliminate the full bacterial population
- Survival rate (log10) (P. aeruginosa; Pseudomonas aeruginosa, survival at 10xMIC for 4 hours, single replicates, (fig 9a source data)): -6 log10
